PubChem BioAssay (NCI)
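In this assay, cells in 96-well plates receive the compound at five concentrations for 48 hours. Endpoints are linearly interpolated between the surrounding concentrations. GI50 is the concentration that inhibits growth by half. TGI is the concentration that stops growth completely.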

Key:
Experiment in all cases: DTP human tumour cell line panel, 48 h
[1] = system: 786-0 renal
[2] = system: A498 renal
[3] = system: A549 NSCLC
[4] = system: ACHN renal
[5] = system: BT-549 breast
[6] = system: CAKI-1 renal
[7] = system: CCRF-CEM leukemia
[8] = system: COLO 205 colon
[9] = system: DU-145 prostate
[10] = system: EKVX NSCLC
[11] = system: HCC-2998 colon
[12] = system: HCT-116 colon
[13] = system: HCT-15 colon
[14] = system: HL-60(TB) leukemia
[15] = system: HOP-62 NSCLC
[16] = system: HOP-92 NSCLC
[17] = system: HS 578T breast
[18] = system: HT29 colon
[19] = system: IGROV1 ovarian
[20] = system: K-562 leukemia
[21] = system: KM12 colon
[22] = system: LOX IMVI melanoma
[23] = system: M14 melanoma
[24] = system: MALME-3M melanoma
[25] = system: MCF7 breast
[26] = system: MDA-MB-231 breast
[27] = system: MDA-MB-435
[28] = system: MDA-MB-468 breast
[29] = system: MOLT-4 leukemia
[30] = system: NCI-H226 lung
[31] = system: NCI-H23 lung
[32] = system: NCI-H460 lung
[33] = system: NCI-H522 lung
[34] = system: OVCAR-3 ovarian
[35] = system: OVCAR-4 ovarian
[36] = system: OVCAR-5 ovarian
[37] = system: OVCAR-8 ovarian
[38] = system: PC-3 prostate
[39] = system: RPMI-8226 leukemia
[40] = system: RXF 393 renal
[41] = system: SF-268 CNS
[42] = system: SF-295 CNS
[43] = system: SF-539 CNS
[44] = system: SK-MEL-2 melanoma
[45] = system: SK-MEL-28 melanoma
[46] = system: SK-MEL-5 melanoma
[47] = system: SK-OV-3 ovarian
[48] = system: SN12C renal
[49] = system: SNB-19 CNS
[50] = system: SR leukemia
[51] = system: SW-620 colon
[52] = system: T-47D breast
[53] = system: TK-10 renal
[54] = system: U251 CNS
[55] = system: UACC-257 melanoma
[56] = system: UACC-62 melanoma
[57] = system: UO-31 renal

Structure (SMILES): Cn1cc(-c2cc(N)n3nc(-c4c[nH]c5ccc(Cl)cc45)cc3n2)c2cc(Br)cnc21
- GI50 [1]: 1.64 µM
- TGI [1]: 3.06 µM
- GI50 [2]: 13.1 µM
- TGI [2]: 29.4 µM
- GI50 [3]: 2.13 µM
- TGI [3]: 6.32 µM
- GI50 [4]: 1.87 µM
- TGI [4]: 3.92 µM
- GI50 [5]: 13.8 µM
- TGI [5]: 28.6 µM
- GI50 [6]: 3.07 µM
- TGI [6]: 16.7 µM
- GI50 [7]: 3.32 µM
- TGI [7]: 10.7 µM
- GI50 [8]: 2.83 µM
- TGI [8]: 6.04 µM
- GI50 [9]: 3.18 µM
- TGI [9]: 9.77 µM
- GI50 [10]: 3.04 µM
- TGI [10]: 14.1 µM
- GI50 [11]: 1.76 µM
- TGI [11]: 3.36 µM
- GI50 [12]: 2.01 µM
- TGI [12]: 4.03 µM
- GI50 [13]: 1.61 µM
- TGI [13]: 3.02 µM
- GI50 [14]: 2.06 µM
- TGI [14]: 5.15 µM
- GI50 [15]: 4.41 µM
- TGI [15]: 27.6 µM
- GI50 [16]: 2.16 µM
- TGI [16]: 4.58 µM
- GI50 [17]: 12.6 µM
- TGI [17]: 55.5 µM
- GI50 [18]: 1.93 µM
- TGI [18]: 3.84 µM
- GI50 [19]: 1.94 µM
- TGI [19]: 4.47 µM
- GI50 [20]: 2.4 µM
- TGI [20]: 6.27 µM
- GI50 [21]: 2.17 µM
- TGI [21]: 4.87 µM
- GI50 [22]: 1.95 µM
- TGI [22]: 3.44 µM
- GI50 [23]: 2.37 µM
- TGI [23]: 5.88 µM
- GI50 [24]: 2.18 µM
- TGI [24]: 5.19 µM
- GI50 [25]: 1.77 µM
- TGI [25]: 3.31 µM
- GI50 [26]: 1.98 µM
- TGI [26]: 4.27 µM
- GI50 [27]: 2.06 µM
- TGI [27]: 4.48 µM
- GI50 [28]: 1.32 µM
- TGI [28]: 2.73 µM
- GI50 [29]: 1.76 µM
- TGI [29]: 5.68 µM
- GI50 [30]: 2.23 µM
- TGI [30]: 11.5 µM
- GI50 [31]: 2.63 µM
- TGI [31]: 7.83 µM
- GI50 [32]: 1.92 µM
- TGI [32]: 3.81 µM
- GI50 [33]: 1.9 µM
- TGI [33]: 3.88 µM
- GI50 [34]: 3.23 µM
- TGI [34]: 9.96 µM
- GI50 [35]: 2.98 µM
- TGI [35]: 9.01 µM
- GI50 [36]: 2.01 µM
- TGI [36]: 6.48 µM
- GI50 [37]: 2.29 µM
- TGI [37]: 5.22 µM
- GI50 [38]: 2.27 µM
- TGI [38]: 5.79 µM
- GI50 [39]: 3.88 µM
- TGI [39]: 34 µM
- GI50 [40]: 1.72 µM
- TGI [40]: 3.32 µM
- GI50 [41]: 7.39 µM
- TGI [41]: 43.9 µM
- GI50 [42]: 1.84 µM
- TGI [42]: 4.04 µM
- GI50 [43]: 1.66 µM
- TGI [43]: 3.22 µM
- GI50 [44]: 2.63 µM
- TGI [44]: 7.51 µM
- GI50 [45]: 2.1 µM
- TGI [45]: 4.97 µM
- GI50 [46]: 4.35 µM
- TGI [46]: 17 µM
- GI50 [47]: 18.6 µM
- TGI [47]: 72.1 µM
- GI50 [48]: 10.1 µM
- TGI [48]: 26.4 µM
- GI50 [49]: 3.25 µM
- TGI [49]: 11.5 µM
- GI50 [50]: 2.27 µM
- TGI [50]: > 100 µM
- GI50 [51]: 1.82 µM
- TGI [51]: 3.5 µM
- GI50 [52]: 2.38 µM
- TGI [52]: 7.3 µM
- GI50 [53]: 2.27 µM
- TGI [53]: 7.2 µM
- GI50 [54]: 1.81 µM
- TGI [54]: 3.39 µM
- GI50 [55]: 12.5 µM
- TGI [55]: 25.5 µM
- GI50 [56]: 1.69 µM
- TGI [56]: 3.6 µM
- GI50 [57]: 2.93 µM
- TGI [57]: 12.1 µM
